Tested on: patients with advanced solid tumors
Assay: Safety: treatment-emergent and senaparib-related adverse events graded per NCI CTCAE v4.03
Type: in vivo
Protocol: This phase I, open-label, multicenter, dose-escalation, and dose-expansion study was conducted at three national clinical institutions in China. […] At baseline, all patients enrolled in the dose-escalation phase had to have at least one evaluable lesion, and those in the dose-expansion period had to have at least one measurable lesion, according to Response Evaluation Criteria in Solid Tumors version 1.1 (RECIST v1.1).[16] Entry to the dose-expansion cohort required the presence of a BRCA mutation, with the exception of patients with ovarian carcinoma, fallopian tube carcinoma, and primary peritoneal carcinoma. Full study eligibility criteria are provided in Supplementary Table S1.
Dose escalation was conducted using a modified Fibonacci 3 + 3 method (Supplementary Fig. S1).[17] Patients were administered oral senaparib from a planned starting dose of 2 mg once daily (QD), with preliminary dose escalation to 120 mg via nine dose groups, in order of their entry into the study. At a given dose level, each patient received a single dose of senaparib followed by a 7-day washout period. They then entered a continuous dosing period to confirm the safety and PK profile, in which they received senaparib QD from day 1 to day 21 of each 3-week cycle. Progression to the next higher dose required approval from the Data Safety Monitoring Committee (DSMC) upon review of the safety and PK data of the previous dose. A 50-mg twice-daily (BID) dosing group was added (planned enrollment, n = 6 patients) based on a DSMC review of the safety, PK, and efficacy analysis of the completed QD dose groups in the phase I clinical trial of senaparib dose escalation in Australia (NCT03507543), which commenced prior to the start of this trial.
The dose-expansion period included 3 populations: dose groups in which at least one patient achieved complete response (CR) or partial response (PR) per RECIST v1.1[16] and 1 dose group higher (evaluated for safety), as well as the dose group at the maximum tolerated dose (MTD)/recommended phase II dose (RP2D). Each of these groups included those patients in the respective dose-escalation group plus a planned additional 10 patients (approximately 20 patients in the MTD/RP2D group) with BRCA^mut+ solid tumors (ovarian, breast, or prostate cancer were preferred, and ovarian cancer could be BRCA wild type). Patients received senaparib monotherapy orally QD or BID (50-mg dose only) over each 3-week cycle until disease progression or unacceptable toxicity.
DLTs were predefined toxicities (Supplementary Table S2) recorded over the 7 days following the single-dose administration of senaparib and during the first treatment cycle (day 1-day 21) for each dose group in the dose-escalation period only. The MTD was defined as the maximum dose at which ≤1/6 patients experienced a DLT. Senaparib PK parameters were derived from blood samples collected from patients after the single administration, and at regular intervals during the first cycle of the dose-escalation and dose-expansion periods. Plasma concentrations of senaparib were determined using high-performance liquid chromatography-tandem mass spectrometry. Tumor response was assessed every 6 weeks per RECIST v1.1,[16] recording objective response rate (ORR), disease control rate (DCR), duration of response (DOR), and progression-free survival (PFS) by dose level for all patients and for those harboring BRCA^mut+ tumors.

SMILES: O=C(c1cc(Cn2c(=O)[nH]c(=O)c3c(F)cccc32)ccc1F)N1CCN(c2ncccn2)CC1 [Senaparib]
- ALT increased TRAE, All (2 mg QD n = 1): 0 n (%)
- ALT increased TRAE, Gr≥3 (2 mg QD n = 1): 0 n (%)
- AST increased TRAE, All (2 mg QD n = 1): 0 n (%)
- AST increased TRAE, Gr≥3 (2 mg QD n = 1): 0 n (%)
- Anemia TRAE, All (2 mg QD n = 1): 0 n (%)
- Anemia TRAE, Gr≥3 (2 mg QD n = 1): 0 n (%)
- Any TEAE, All (2 mg QD n = 1): 1 (100) n (%)
- Any TEAE, Gr≥3 (2 mg QD n = 1): 1 (100) n (%)
- Any TEAE, events (2 mg QD n = 1): 9 n ev
- Any TEAE, patients (2 mg QD n = 1): 1 (100) n (%)
- Any TRAE, All (2 mg QD n = 1): 1 (100) n (%)
- Any TRAE, Gr≥3 (2 mg QD n = 1): 0 n (%)
- Appetite decreased TRAE, All (2 mg QD n = 1): 1 (100) n (%)
- Appetite decreased TRAE, Gr≥3 (2 mg QD n = 1): 0 n (%)
- Asthenia TRAE, All (2 mg QD n = 1): 0 n (%)
- Asthenia TRAE, Gr≥3 (2 mg QD n = 1): 0 n (%)
- Blood bilirubin increased TRAE, All (2 mg QD n = 1): 0 n (%)
- Blood bilirubin increased TRAE, Gr≥3 (2 mg QD n = 1): 0 n (%)
- Blood creatinine increased TRAE, All (2 mg QD n = 1): 0 n (%)
- Blood creatinine increased TRAE, Gr≥3 (2 mg QD n = 1): 0 n (%)
- Hypokalemia TRAE, All (2 mg QD n = 1): 1 (100) n (%)
- Hypokalemia TRAE, Gr≥3 (2 mg QD n = 1): 0 n (%)
- Nausea TRAE, All (2 mg QD n = 1): 0 n (%)
- Nausea TRAE, Gr≥3 (2 mg QD n = 1): 0 n (%)
- Neutrophil count decreased TRAE, All (2 mg QD n = 1): 0 n (%)
- Neutrophil count decreased TRAE, Gr≥3 (2 mg QD n = 1): 0 n (%)
- Platelet count decreased TRAE, All (2 mg QD n = 1): 0 n (%)
- Platelet count decreased TRAE, Gr≥3 (2 mg QD n = 1): 0 n (%)
- SAEs, events (2 mg QD n = 1): 1 n ev
- SAEs, patients (2 mg QD n = 1): 1 (100) n (%)
- TEAE Grade ≥3, events (2 mg QD n = 1): 1 n ev
- TEAE Grade ≥3, patients (2 mg QD n = 1): 1 (100) n (%)
- TEAEs leading to death, events (2 mg QD n = 1): 0 n ev
- TEAEs leading to death, patients (2 mg QD n = 1): 0 n (%)
- TEAEs leading to dose discontinuation, events (2 mg QD n = 1): 0 n ev
- TEAEs leading to dose discontinuation, patients (2 mg QD n = 1): 0 n (%)
- TEAEs leading to dose interruption, events (2 mg QD n = 1): 0 n ev
- TEAEs leading to dose interruption, patients (2 mg QD n = 1): 0 n (%)
- TEAEs leading to dose reduction, events (2 mg QD n = 1): 0 n ev
- TEAEs leading to dose reduction, patients (2 mg QD n = 1): 0 n (%)
- TRAEs Grade ≥3, events (2 mg QD n = 1): 0 n ev
- TRAEs Grade ≥3, patients (2 mg QD n = 1): 0 n (%)
- TRAEs, events (2 mg QD n = 1): 6 n ev
- TRAEs, patients (2 mg QD n = 1): 1 (100) n (%)
- Vomiting TRAE, All (2 mg QD n = 1): 0 n (%)
- Vomiting TRAE, Gr≥3 (2 mg QD n = 1): 0 n (%)
- WBC decreased TRAE, All (2 mg QD n = 1): 0 n (%)
- WBC decreased TRAE, Gr≥3 (2 mg QD n = 1): 0 n (%)
- ALT increased TRAE, All (5 mg QD n = 3): 0 n (%)
- ALT increased TRAE, Gr≥3 (5 mg QD n = 3): 0 n (%)
- AST increased TRAE, All (5 mg QD n = 3): 0 n (%)
- AST increased TRAE, Gr≥3 (5 mg QD n = 3): 0 n (%)
- Anemia TRAE, All (5 mg QD n = 3): 2 (66.7) n (%)
- Anemia TRAE, Gr≥3 (5 mg QD n = 3): 1 (33.3) n (%)
- Any TEAE, All (5 mg QD n = 3): 3 (100) n (%)
- Any TEAE, Gr≥3 (5 mg QD n = 3): 3 (100) n (%)
- Any TEAE, events (5 mg QD n = 3): 28 n ev
- Any TEAE, patients (5 mg QD n = 3): 3 (100) n (%)
- Any TRAE, All (5 mg QD n = 3): 3 (100) n (%)
- Any TRAE, Gr≥3 (5 mg QD n = 3): 1 (33.3) n (%)
- Appetite decreased TRAE, All (5 mg QD n = 3): 1 (33.3) n (%)
- Appetite decreased TRAE, Gr≥3 (5 mg QD n = 3): 0 n (%)
- Asthenia TRAE, All (5 mg QD n = 3): 1 (33.3) n (%)
- Asthenia TRAE, Gr≥3 (5 mg QD n = 3): 0 n (%)
- Blood bilirubin increased TRAE, All (5 mg QD n = 3): 1 (33.3) n (%)
- Blood bilirubin increased TRAE, Gr≥3 (5 mg QD n = 3): 0 n (%)
- Blood creatinine increased TRAE, All (5 mg QD n = 3): 0 n (%)
- Blood creatinine increased TRAE, Gr≥3 (5 mg QD n = 3): 0 n (%)
- Hypokalemia TRAE, All (5 mg QD n = 3): 0 n (%)
- Hypokalemia TRAE, Gr≥3 (5 mg QD n = 3): 0 n (%)
- Nausea TRAE, All (5 mg QD n = 3): 1 (33.3) n (%)
- Nausea TRAE, Gr≥3 (5 mg QD n = 3): 0 n (%)
- Neutrophil count decreased TRAE, All (5 mg QD n = 3): 1 (33.3) n (%)
- Neutrophil count decreased TRAE, Gr≥3 (5 mg QD n = 3): 0 n (%)
- Platelet count decreased TRAE, All (5 mg QD n = 3): 1 (33.3) n (%)
- Platelet count decreased TRAE, Gr≥3 (5 mg QD n = 3): 0 n (%)
- SAEs, events (5 mg QD n = 3): 0 n ev
- SAEs, patients (5 mg QD n = 3): 0 n (%)
- TEAE Grade ≥3, events (5 mg QD n = 3): 5 n ev
- TEAE Grade ≥3, patients (5 mg QD n = 3): 3 (100) n (%)
- TEAEs leading to death, events (5 mg QD n = 3): 0 n ev
- TEAEs leading to death, patients (5 mg QD n = 3): 0 n (%)
- TEAEs leading to dose discontinuation, events (5 mg QD n = 3): 0 n ev
- TEAEs leading to dose discontinuation, patients (5 mg QD n = 3): 0 n (%)
- TEAEs leading to dose interruption, events (5 mg QD n = 3): 0 n ev
- TEAEs leading to dose interruption, patients (5 mg QD n = 3): 0 n (%)
- TEAEs leading to dose reduction, events (5 mg QD n = 3): 0 n ev
- TEAEs leading to dose reduction, patients (5 mg QD n = 3): 0 n (%)
- TRAEs Grade ≥3, events (5 mg QD n = 3): 1 n ev
- TRAEs Grade ≥3, patients (5 mg QD n = 3): 1 (33.3) n (%)
- TRAEs, events (5 mg QD n = 3): 13 n ev
- TRAEs, patients (5 mg QD n = 3): 3 (100) n (%)
- Vomiting TRAE, All (5 mg QD n = 3): 0 n (%)
- Vomiting TRAE, Gr≥3 (5 mg QD n = 3): 0 n (%)
- WBC decreased TRAE, All (5 mg QD n = 3): 1 (33.3) n (%)
- WBC decreased TRAE, Gr≥3 (5 mg QD n = 3): 0 n (%)
- ALT increased TRAE, All (10 mg QD n = 3): 1 (33.3) n (%)
- ALT increased TRAE, Gr≥3 (10 mg QD n = 3): 0 n (%)
- AST increased TRAE, All (10 mg QD n = 3): 1 (33.3) n (%)
- AST increased TRAE, Gr≥3 (10 mg QD n = 3): 0 n (%)
- Anemia TRAE, All (10 mg QD n = 3): 1 (33.3) n (%)
- Anemia TRAE, Gr≥3 (10 mg QD n = 3): 0 n (%)
- Any TEAE, All (10 mg QD n = 3): 3 (100) n (%)
- Any TEAE, Gr≥3 (10 mg QD n = 3): 0 n (%)
- Any TEAE, events (10 mg QD n = 3): 10 n ev
- Any TEAE, patients (10 mg QD n = 3): 3 (100) n (%)
- Any TRAE, All (10 mg QD n = 3): 3 (100) n (%)
- Any TRAE, Gr≥3 (10 mg QD n = 3): 0 n (%)
- Appetite decreased TRAE, All (10 mg QD n = 3): 1 (33.3) n (%)
- Appetite decreased TRAE, Gr≥3 (10 mg QD n = 3): 0 n (%)
- Asthenia TRAE, All (10 mg QD n = 3): 0 n (%)
- Asthenia TRAE, Gr≥3 (10 mg QD n = 3): 0 n (%)
- Blood bilirubin increased TRAE, All (10 mg QD n = 3): 0 n (%)
- Blood bilirubin increased TRAE, Gr≥3 (10 mg QD n = 3): 0 n (%)
- Blood creatinine increased TRAE, All (10 mg QD n = 3): 0 n (%)
